Laboratory results published in paper PMC10962542, “Inhibition of Aurora‐A/N‐Myc Protein–Protein Interaction Using Peptidomimetics: Understanding the Role of Peptide Cyclization” (Chembiochem, 2023).
Read-outs that look alike come from different tables or passages of the source. *1 amine or outer side, *2 acyl side, *3 side chain or, on linkers, in order; H or OH if unused. Where a SMILES comes first, the peptide text is derived from it. Bridges are numbered along the chain shown (N, C = ends). Maleimide(3,4-diyl) = O=C1NC(=O)C([*:2])=C1[*:1]

Assays:
[1] = target: T1, N‐Myc/Aurora‐A interaction (Aurora‐A122‐403‐C290A/C393A) (Homo sapiens, UniProt O14965, C290A/C393A); assay: competition fluorescence anisotropy (FA) assay against fluorescein labelled N‐Myc61‐89; type: binding; note: equilibrated 2 h at room temperature
T1 construct: Aurora‐A 122‐403‐C290A/C393A protein was produced as described previously; made in house
T1 sequence (O14965 122-403 C290A/C393A): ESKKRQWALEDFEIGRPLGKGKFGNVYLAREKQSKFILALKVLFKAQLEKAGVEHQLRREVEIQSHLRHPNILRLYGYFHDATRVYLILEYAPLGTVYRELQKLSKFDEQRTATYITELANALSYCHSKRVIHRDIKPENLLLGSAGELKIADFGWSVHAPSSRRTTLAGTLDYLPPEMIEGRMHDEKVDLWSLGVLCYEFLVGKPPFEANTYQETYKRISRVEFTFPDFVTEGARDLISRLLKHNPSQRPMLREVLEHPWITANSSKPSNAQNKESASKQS
Description: Fluorescence anisotropy (FA) assays: All assays were performed using 384‐well plates (Greiner Bio‐one, UK). […] All samples were prepared in 25 mM Tris, 150 mM NaCl, 5 mM MgCl2, pH 7.5, and tested in triplicate using an EnVisionTM 2103 MultiLabel plate reader (Perkin Elmer; Waltham, MA, USA). The parameters were set as follows: Excitation wavelength=480 nm (30 nm bandwidth) and emission wavelength=535 nm (30 nm bandwidth). Measured data were processed and analysed as previously described.[31] Specifically, the perpendicular intensity (P) and parallel intensity (S) were subtracted by the control values and used for calculations of intensity and anisotropy using the following Equations 1, 2, 3, 4, and 5: (1) I=2PG+S (2) r=S-PG (3) Lb=r-rmin/λrmax-r+r-rmin (4) [drawing 1] (5) y=rmax+rmin-rmax/1+(x/x0)^p
For competition FA assays, the average anisotropy and the average standard deviation of the values derived from equation (2) were calculated and fit to a sigmoidal logistic model (equation (5)) using Origin 2021. […] Results are reported as IC50±SD, with data points representing the mean of three replicates and error bars indicating the corresponding SD. Where applicable, ΔΔG was determined as follows: ΔΔG=−RT ln (ΔIC50).

[2] = circular dichroism (CD) spectroscopy; type: physicochemical; settings: 150 mM NaCl, 5 mM MgCl2, pH 7.5, 5 °C, n=2, free‐thiol (red) samples with 5 mol equivalents TCEP; for MRE222 (mean residue ellipticity at 222 nm): 25 mM Tris, mean ± SD, SD; for % Helicity (estimated): from MRE222 by equation 7, 25 mM Tris
Description: Circular dichroism (CD): All samples were prepared in Tris buffer (25 mM Tris, 150 mM NaCl, 5 mM MgCl2, pH 7.5) with the exception of free sulfhydryl peptides, to which Tris(2‐carboxyethyl)phosphine (TCEP; 5 mol eq. relative to the peptide) was added. CD spectra were recorded using an APP Chirascan CD spectropolarimeter and 1 mm pathlength quartz cuvettes. Sample concentrations were typically 30–120 μM, as determined by UV−V absorption based on a tryptophan extinction coefficient of 5600 M^−1 cm^−1 and, for mal‐constrained variants, a maleimide coefficient of 1700 M^−1 cm^−1.[16, 32] […] Spectra were recorded in duplicate at 5 °C, over wavelengths ranging from 290 to 180 nm, with data collected every 1 nm (1 nm s^−1). A background spectrum for CD buffer alone was also recorded and background ellipticity values were subtracted from raw sample ellipticity values (θ) when calculating mean residue ellipticities (MREs) using Equation 6: (6) MRE=(θλ-θ0)xMw/nxlxc
Where [θ]λ is the observed ellipticity at a given wavelength λ in mdeg, [θ]0 is the ellipticity observed for the buffer, Mw =molar weight of the peptide in g mol^−1, n=number of residues; c=sample concentration (mg mL^−1); l=pathlength of the cuvette in mm. Estimates of peptide % helicity were made using Equation 7, [33] (7) %helicity=(MRE222-MREcoil)x100/-425001-3/n
where MRE222 is the MRE value at 222 nm, MREcoil=640‐45T (with T in °C)=415 deg cm^2 dmol^−1 res^−1 at 5 °C, and n is the number of backbone amide bonds including the N‐terminal acetyl.

| SMILES | IC50 ([1]; SD) [µM] | MRE222 (mean residue ellipticity at 222 nm) [2] [deg cm^−1 dmol^−1 res^−1] | % Helicity (estimated) [2] [%] | IC50 [1] [µM] |
| --- | --- | --- | --- | --- |
| CSCC[C@H](NC(=O)[C@H](CCC(=O)O)NC(=O)[C@H](CS)NC(=O)[C@@H](NC(=O)[C@H](Cc1c[nH]c2ccccc12)NC(=O)[C@H](CO)NC(=O)[C@@H]1CCCN1C(=O)[C@@H]1CCCN1C(=O)[C@H](CCC(=O)O)NC(=O)[C@H](CO)NC(=O)[C@H](CO)NC(=O)[C@H](Cc1c[nH]cn1)NC(=O)[C@H](CCC(=O)O)NC(=O)[C@H](C)NC(=O)[C@H](Cc1ccccc1)NC(=O)CNC(=O)[C@H](CCCNC(=N)N)NC(=O)[C@H](CO)NC(=O)[C@@H]1CCCN1C(=O)[C@H](CO)NC(=O)[C@H](CC(C)C)NC(C)=O)C(C)C)C(=O)N[C@@H](CC(C)C)C(=O)N[C@@H](CS)C(=O)N[C@@H](CCC(=O)O)C(=O)N[C@@H](CC(N)=O)C(=O)N[C@@H](CCC(=O)O)C(=O)N[C@@H](CC(C)C)C(=O)N[C@@H](Cc1c[nH]c2ccccc12)C(=O)NCC(N)=O [N-Myc 61-89 T79C/L83C red] (Ac-LSPSRGFAEHSSEPPSWVCEMLCENELWG-NH2) | 152 ± 15 | -1907 ± 23 | 6 ± 1 |  |
| CSCC[C@@H]1NC(=O)[C@H](CCC(=O)O)NC(=O)[C@H]([C@@H](C)O)NC(=O)[C@@H](NC(=O)[C@H](Cc2c[nH]c3ccccc23)NC(=O)[C@H](CO)NC(=O)[C@@H]2CCCN2C(=O)[C@@H]2CCCN2C(=O)[C@H](CCC(=O)O)NC(=O)[C@H](CO)NC(=O)[C@H](CO)NC(=O)[C@H](Cc2c[nH]cn2)NC(=O)[C@H](CCC(=O)O)NC(=O)[C@H](C)NC(=O)[C@H](Cc2ccccc2)NC(=O)CNC(=O)[C@H](CCCNC(=N)N)NC(=O)[C@H](CO)NC(=O)[C@@H]2CCCN2C(=O)[C@H](CO)NC(=O)[C@H](CC(C)C)NC(C)=O)CSC2=C(SC[C@@H](C(=O)N[C@@H](CC(C)C)C(=O)N[C@@H](CCC(=O)O)C(=O)N[C@@H](CC(N)=O)C(=O)N[C@@H](CCC(=O)O)C(=O)N[C@@H](CC(C)C)C(=O)N[C@@H](Cc3c[nH]c4ccccc34)C(=O)NCC(N)=O)NC1=O)C(=O)NC2=O [N-Myc 61-89 V78C/L82C mal] (Ac-LSPSRGFAEHSSEPPSWCTEMCLENELWG-NH2; linker 18-22 via Maleimide(3,4-diyl)) |  | -1767 ± 72 | 6 ± 1 | ≥ 500 |
| CSCC[C@@H]1NC(=O)[C@H](CCC(=O)O)NC(=O)[C@H]([C@@H](C)O)NC(=O)[C@@H](NC(=O)[C@H](Cc2c[nH]c3ccccc23)NC(=O)[C@H](CO)NC(=O)[C@@H]2CCCN2C(=O)[C@@H]2CCCN2C(=O)[C@H](CCC(=O)O)NC(=O)[C@H](CO)NC(=O)[C@H](CO)NC(=O)[C@H](Cc2c[nH]cn2)NC(=O)[C@H](CCC(=O)O)NC(=O)[C@H](C)NC(=O)[C@H](Cc2ccccc2)NC(=O)CNC(=O)[C@H](CCCNC(=N)N)NC(=O)[C@H](CO)NC(=O)[C@@H]2CCCN2C(=O)[C@H](CO)NC(=O)[C@H](CC(C)C)NC(C)=O)CSSC[C@@H](C(=O)N[C@@H](CC(C)C)C(=O)N[C@@H](CCC(=O)O)C(=O)N[C@@H](CC(N)=O)C(=O)N[C@@H](CCC(=O)O)C(=O)N[C@@H](CC(C)C)C(=O)N[C@@H](Cc2c[nH]c3ccccc23)C(=O)NCC(N)=O)NC1=O [N-Myc 61-89 V78C/L82C ox] (Ac-LSPSRGFAEHSSEPPSWCTEMCLENELWG-NH2; disulfide 18-22) |  | -2823 ± 48 | 8 ± 1 | ≥ 500 |
| CSCC[C@H](NC(=O)[C@H](CCC(=O)O)NC(=O)[C@@H](NC(=O)[C@@H](NC(=O)[C@H](Cc1c[nH]c2ccccc12)NC(=O)[C@H](CO)NC(=O)[C@@H]1CCCN1C(=O)[C@@H]1CCCN1C(=O)[C@H](CCC(=O)O)NC(=O)[C@H](CO)NC(=O)[C@H](CO)NC(=O)[C@H](Cc1c[nH]cn1)NC(=O)[C@H](CCC(=O)O)NC(=O)[C@H](C)NC(=O)[C@H](Cc1ccccc1)NC(=O)CNC(=O)[C@H](CCCNC(=N)N)NC(=O)[C@H](CO)NC(=O)[C@@H]1CCCN1C(=O)[C@H](CO)NC(=O)[C@H](CC(C)C)NC(C)=O)C(C)C)[C@@H](C)O)C(=O)N[C@@H](CC(C)C)C(=O)N[C@H]1CSSC[C@@H](C(=O)N[C@@H](Cc2c[nH]c3ccccc23)C(=O)NCC(N)=O)NC(=O)[C@H](CCC(=O)O)NC(=O)[C@H](CC(N)=O)NC(=O)[C@H](CCC(=O)O)NC1=O [N-Myc 61-89L83C/L87C ox] (Ac-LSPSRGFAEHSSEPPSWVTEMLCENECWG-NH2; disulfide 23-27) | 103 ± 11 | -2223 ± 37 | 7 ± 1 |  |

Second part, the compound after the results:

| IC50 ([1]; SD) [µM] | MRE222 (mean residue ellipticity at 222 nm) [2] [deg cm^−1 dmol^−1 res^−1] | % Helicity (estimated) [2] [%] | IC50 [1] [µM] | SMILES |
| --- | --- | --- | --- | --- |
| 111 ± 5 | -2562 ± 106 | 8 ± 1 |  | CSCC[C@H](NC(=O)[C@H](CS)NC(=O)[C@@H](NC(=O)[C@@H](NC(=O)[C@H](Cc1c[nH]c2ccccc12)NC(=O)[C@H](CO)NC(=O)[C@@H]1CCCN1C(=O)[C@@H]1CCCN1C(=O)[C@H](CCC(=O)O)NC(=O)[C@H](CO)NC(=O)[C@H](CO)NC(=O)[C@H](Cc1c[nH]cn1)NC(=O)[C@H](CCC(=O)O)NC(=O)[C@H](C)NC(=O)[C@H](Cc1ccccc1)NC(=O)CNC(=O)[C@H](CCCNC(=N)N)NC(=O)[C@H](CO)NC(=O)[C@@H]1CCCN1C(=O)[C@H](CO)NC(=O)[C@H](CC(C)C)NC(C)=O)C(C)C)[C@@H](C)O)C(=O)N[C@@H](CC(C)C)C(=O)N[C@@H](CC(C)C)C(=O)N[C@@H](CS)C(=O)N[C@@H](CC(N)=O)C(=O)N[C@@H](CCC(=O)O)C(=O)N[C@@H](CC(C)C)C(=O)N[C@@H](Cc1c[nH]c2ccccc12)C(=O)NCC(N)=O [N-Myc 61-89E80C/E84C red] (Ac-LSPSRGFAEHSSEPPSWVTCMLLCNELWG-NH2) |
| 120 ± 14 | -2348 ± 49 | 7 ± 1 |  | CSCC[C@H](NC(=O)[C@H](CCC(=O)O)NC(=O)[C@@H](NC(=O)[C@@H](NC(=O)[C@H](Cc1c[nH]c2ccccc12)NC(=O)[C@H](CO)NC(=O)[C@@H]1CCCN1C(=O)[C@@H]1CCCN1C(=O)[C@H](CCC(=O)O)NC(=O)[C@H](CO)NC(=O)[C@H](CO)NC(=O)[C@H](Cc1c[nH]cn1)NC(=O)[C@H](CCC(=O)O)NC(=O)[C@H](C)NC(=O)[C@H](Cc1ccccc1)NC(=O)CNC(=O)[C@H](CCCNC(=N)N)NC(=O)[C@H](CO)NC(=O)[C@@H]1CCCN1C(=O)[C@H](CO)NC(=O)[C@H](CC(C)C)NC(C)=O)C(C)C)[C@@H](C)O)C(=O)N[C@@H](CS)C(=O)N[C@@H](CC(C)C)C(=O)N[C@@H](CCC(=O)O)C(=O)N[C@@H](CC(N)=O)C(=O)N[C@@H](CS)C(=O)N[C@@H](CC(C)C)C(=O)N[C@@H](Cc1c[nH]c2ccccc12)C(=O)NCC(N)=O [N-Myc 61-89L82C/E86C red] (Ac-LSPSRGFAEHSSEPPSWVTEMCLENCLWG-NH2) |
